In patent publication US11259522B2, “Control of resistant pests” (priority 2017, dated 2022):
Values after ≈ are worked out from the molar mass of the structure shown. Like-named read-outs stand apart in the source and are kept apart here.

What was measured:
[1] = test system: M. persicae (green peach aphid) insecticide-susceptible population; assay: Leaf dip bioassay, green peach aphid, susceptible population; type: in vivo, Myzus persicae; conditions: Susceptible population, 96 hours exposure
Protocol: Each colony was maintained separately on bok choi plants ([…]) within an exclusion cage in a constant temperature room at 24° C. with a photoperiod of 16:8 LD.
Laboratory bioassays were used to determine the efficacy of flavesone against M. persicae following the leaf dip method described in Moores et al. (1994, Pesticide Biochemistry and Physiology, 49, 114-120). A pilot study was first conducted which confirmed that the leaf dip method was appropriate to elicit a clear dose response for Flavocide 500EW against M. persicae, and to determine the appropriate rate range and timing of mortality assessments (scored at 24, 48, 72 & 96 hours) (data not shown).
Bioassays were then conducted to assess the efficacy of flavesone against a susceptible and resistant population of M. persicae, and to calculate LC values. The efficacy of a conventional insecticide, pirimicarb, was tested for comparison. Nine concentrations of flavesone ranging from 1×10^−3 to 10 times the proposed field rate (Table 15), and six concentrations of pirimicarb were serially diluted and tested, along with a water control, against the susceptible and resistant aphid populations. Leaf discs (25 mm diameter) cut from bok choi leaves were submerged for 1 second in the insecticide solutions, or in the water control, and placed adaxial side up on 10 g/L agar in 35 mm petri dishes. Six replicate leaf discs were prepared per treatment. Once leaves were air-dry, eight M. persicae nymphs were transferred to each insecticide-dipped leaf disc using a fine-haired paintbrush.
After aphid introduction, each petri dish was inverted onto a lid containing a 25 mm diameter filter paper to control humidity. All petri dishes were then placed into an incubator held at 18° C.±2° C. with a photoperiod of 16:8 LD cycle. At 48 & 96 hours, aphids were scored as alive (vibrant and moving freely), dead (not moving over a 5 second period), or incapacitated (inhibited movement).
Dose-response curves were generated by plotting percentage mortality against log concentration. Mortality data was analysed using a logistic regression model with random effects. Logistic regression is suited for the analysis of binary response data (i.e. dead/alive) with the random effect component of the model controlling for the non-independence of mortality scores within replicates. […] Population differences were tested by comparing the change in model deviance with and without the population factor (different regression intercepts for each population). Differences in regression slopes between populations were tested by comparing the change in model deviance with and without the population×dose interaction term.

[2] = test system: Aedes aegypti PRS Puerto Rican strain (synthetic pyrethroid resistant) L3 larvae; assay: Mosquito larval dose response assay, PRS strain; conditions: read-out: Lethal Concentration (LC50) PRS Strain
[3] = test system: Halotydeus destructor resistant population (synthetic pyrethroid resistance); assay: Coated plastic vial bioassay, redlegged earth mite, resistant population; type: in vivo
Protocol: The test compositions included 0.1% Tween 20 non-ionic surfactant to aid the spread of insecticides when coating plastic vials. This concentration of Tween 20 has been previously shown to have no toxic effect on H. destructor. For each insecticide concentration tested, 3, 10, 30, 100, 300, 1000, 3000 and 10000 mg a.i./L (ppm), approximately 10 mL of solution was poured into a 15 mL plastic vial and swirled to ensure a complete coating, with excess liquid removed. Eight vials were coated per concentration and were left to dry overnight. Control vials were treated in the same way but with water used in place of test composition.
Eight susceptible H. destructor mites were then placed into each vial along with a leaf of common vetch (Vicia sativa). The leaf was added to provide food and increase humidity. Vials were then sealed with a lid and placed at 18° C. After 4, 6, 8 and 24 hours of exposure, the mites were scored as alive (moving freely), incapacitated (inhibited movement), or dead (no movement over a 5 second period).
The resistant population of H. destructor was collected from a lucerne paddock in the Upper South-East district of South Australia, where resistance to synthetic pyrethroids was confirmed in late 2016.
The data produced in the assays were assessed for concentrations that caused 50, 90 and 99% mortality (lethal concentration, LC), together with 95% confidence intervals (CIs) and were estimated from observations of mortality after 24 hours exposure using a binomial logistic regression (Robertson & Preisler, 1992, Pesticide Bioassays with Arthropods. CRC: Boca Raton; Venables & Ripley, 2002, Modern Applied Statistics with S. Springer: New York). Population differences were tested by comparing the change in model deviance with and without the population factor (different regression intercepts for each population). Differences in regression slopes between populations were tested by comparing the change in model deviance with and without the population×dose interaction term. The resistance ratio of the insecticide-resistant population was estimated as the ratio of its LC50 to that of the susceptible population. All analyses were performed using R 3.3. (R Core Team 2017, R: A language and environment for statistical computing. R Foundation for Statistical Computing, Vienna, Austria. http://www.R-project.org).

[4] = test system: Oryzaephilus surinamensis susceptible strain VOS48; assay: Grain protectant bioassay on treated wheat, O. surinamensis susceptible; type: in vivo; conditions: for Progeny reduction (%): vs untreated control
[5] = test system: Tribolium castaneum susceptible strain QTC4; assay: Grain protectant bioassay on treated wheat, T. castaneum susceptible; type: in vivo; conditions: for Progeny reduction (%): vs untreated control
[6] = test system: Oryzaephilus surinamensis strain QOS302 (resistant to fenitrothion & chlorpyrifos-methyl); assay: Grain protectant bioassay on treated wheat, O. surinamensis resistant; type: in vivo; conditions: for Progeny reduction (%): vs untreated control
[7] = test system: Cryptolestes ferrugineus susceptible strain QCF31; assay: Grain protectant bioassay on treated wheat, C. ferrugineus susceptible; type: in vivo; conditions: for Progeny reduction (%): vs untreated control
[8] = test system: Tribolium castaneum strain QTC279 (resistant to malathion and bioresmethrin); assay: Grain protectant bioassay on treated wheat, T. castaneum resistant; type: in vivo; conditions: for Progeny reduction (%): vs untreated control
[9] = Resistant population, 24 hours exposure
[10] = Oryzaephilus surinamensis, 336 h, 25 mg/kg, 2 weeks, mean ± SE, read-out: Adult mortality (%)
[11] = Oryzaephilus surinamensis, 336 h, 60 mg/kg, 2 weeks, mean ± SE, read-out: Adult mortality (%)
[12] = Tribolium castaneum, 336 h, 25 mg/kg, 2 weeks, mean ± SE, read-out: Adult mortality (%)
[13] = Tribolium castaneum, 336 h, 60 mg/kg, 2 weeks, mean ± SE, read-out: Adult mortality (%)

CC(C)C(=O)C1C(=O)C(C)(C)C(=O)C(C)(C)C1=O [Flavesone, 1-isobutyroyl-3,3,5,5-tetramethylcyclohexane-2,4,6-trione]
LC50 ([1]; Myzus persicae, foliar, read-out: LC50 (mg a.i./L)): 2730 µg/mL (≈ 10800 µM)
LC90 (mg a.i./L) [1]: 6,034 mg a.i./L
LC99 (mg a.i./L) [1]: 14,330 mg a.i./L
LC50 ([2]; 24 h): 40.9 µg/mL (≈ 162 µM)
LC50 ([2]; 48 h): 40.5 µg/mL (≈ 161 µM)
LC50 ([2]; 72 h): 39.7 µg/mL (≈ 157 µM)
LC50 ([3]; Halotydeus destructor, 24 h, Resistant population, 24 hours exposure, read-out: LC50 (mg a.i./L)): 34.2 µg/mL (≈ 136 µM)
LC50 (mg a.i./L) [3, 9]: 34.22 mg a.i./L
LC90 (mg a.i./L) [3, 9]: 117.89 mg a.i./L
LC99 (mg a.i./L) [3, 9]: 454.76 mg a.i./L
concentration causing 50% mortality ([3]; both susceptible and insecticide-resistant populations, 24 hours): 34−40 mg a.i./L
Adult mortality (%) ([4]; 25 mg/kg, 2 weeks, mean ± SE): 22.7 ± 2.4%
Live adult progeny ([4]; 25 mg/kg, mean ± SE): 1.3 ± 0.7
Progeny reduction (%) ([4]; 25 mg/kg): 99.6%
Adult mortality (%) ([4]; 60 mg/kg, 2 weeks, mean ± SE): 91.3 ± 5.9%
Live adult progeny ([4]; 60 mg/kg, mean ± SE): 0.0 ± 0.0
Progeny reduction (%) ([4]; 60 mg/kg): 100%
mortality at 25 mg/kg [4, 10]: 22%
mortality at 60 mg/kg [4, 11]: 91%
Live adult progeny ([5]; 25 mg/kg, mean ± SE): 120.0 ± 16.1
Live adult progeny ([5]; 60 mg/kg, mean ± SE): 65.0 ± 3.2
Progeny reduction (%) ([5]; 60 mg/kg): 45.2%
Progeny reduction (%) ([5]; 60 mg/kg, listed as flavesone): 45%
mortality at 25 mg/kg [5, 12]: 0%
mortality at 60 mg/kg [5, 13]: 0%
Live adult progeny ([6]; 25 mg/kg, mean ± SE): 160.3 ± 15.7
Progeny reduction (%) ([6]; 25 mg/kg): 61.2%
Adult mortality (%) ([6]; 60 mg/kg, 2 weeks, mean ± SE): 14.7 ± 8.7%
Live adult progeny ([6]; 60 mg/kg, mean ± SE): 0.0 ± 0.0
Progeny reduction (%) ([6]; 60 mg/kg): 100%
mortality at 25 mg/kg [6, 10]: 0.7%
mortality at 60 mg/kg [6, 11]: 14%
Live adult progeny ([7]; 25 mg/kg, mean ± SE): 72.0 ± 20.3
Progeny reduction (%) ([7]; 25 mg/kg): 76.5%
Progeny reduction (%) ([7]; 25 mg/kg, listed as flavesone): ~75%
Live adult progeny ([7]; 60 mg/kg, mean ± SE): 0.0 ± 0.0
Progeny reduction (%) ([7]; 60 mg/kg): 100%
mortality at 25 mg/kg ([7]; Cryptolestes ferrugineus, 336 h, 25 mg/kg, 2 weeks, mean ± SE, read-out: Adult mortality (%)): 27.5 ± 17.5%
mortality at 60 mg/kg ([7]; Cryptolestes ferrugineus, 336 h, 60 mg/kg, 2 weeks, mean ± SE, read-out: Adult mortality (%)): 90%
Live adult progeny ([8]; 25 mg/kg, mean ± SE): 265.3 ± 27.7
Progeny reduction (%) ([8]; 25 mg/kg): 17.4%
Live adult progeny ([8]; 60 mg/kg, mean ± SE): 204.3 ± 27.8
Progeny reduction (%) ([8]; 60 mg/kg): 36.4%
Progeny reduction (%) ([8]; 60 mg/kg, listed as flavesone): 36%
mortality at 25 mg/kg [8, 12]: 0%
mortality at 60 mg/kg [8, 13]: 0%
